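Values below derive from 48-hour exposures of cells grown in 96-well plates, with endpoints linearly interpolated between the two concentrations bracketing the appropriate inhibition level. GI50 is the concentration that inhibits growth by half. TGI denotes the concentration required for complete inhibition of growth.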
Experiments:
Assay in all cases: NCI-60 cell line screen, 48 h
[1] = tested on: 786-0 renal
[2] = tested on: A498 renal
[3] = tested on: A549 NSCLC
[4] = tested on: ACHN renal
[5] = tested on: BT-549 breast
[6] = tested on: CAKI-1 renal
[7] = tested on: CCRF-CEM leukemia
[8] = tested on: COLO 205 colon
[9] = tested on: DU-145 prostate
[10] = tested on: EKVX NSCLC
[11] = tested on: HCC-2998 colon
[12] = tested on: HCT-116 colon
[13] = tested on: HCT-15 colon
[14] = tested on: HL-60(TB) leukemia
[15] = tested on: HOP-62 NSCLC
[16] = tested on: HOP-92 NSCLC
[17] = tested on: HS 578T breast
[18] = tested on: HT29 colon
[19] = tested on: IGROV1 ovarian
[20] = tested on: K-562 leukemia
[21] = tested on: KM12 colon
[22] = tested on: LOX IMVI melanoma
[23] = tested on: M14 melanoma
[24] = tested on: MALME-3M melanoma
[25] = tested on: MCF7 breast
[26] = tested on: MDA-MB-231 breast
[27] = tested on: MDA-MB-435
[28] = tested on: MOLT-4 leukemia
[29] = tested on: NCI-H226 lung
[30] = tested on: NCI-H23 lung
[31] = tested on: NCI-H460 lung
[32] = tested on: NCI-H522 lung
[33] = tested on: NCI/ADR-RES ovarian
[34] = tested on: OVCAR-3 ovarian
[35] = tested on: OVCAR-4 ovarian
[36] = tested on: OVCAR-5 ovarian
[37] = tested on: OVCAR-8 ovarian
[38] = tested on: PC-3 prostate
[39] = tested on: RPMI-8226 leukemia
[40] = tested on: RXF 393 renal
[41] = tested on: SF-268 CNS
[42] = tested on: SF-295 CNS
[43] = tested on: SF-539 CNS
[44] = tested on: SK-MEL-2 melanoma
[45] = tested on: SK-MEL-28 melanoma
[46] = tested on: SK-MEL-5 melanoma
[47] = tested on: SK-OV-3 ovarian
[48] = tested on: SN12C renal
[49] = tested on: SNB-19 CNS
[50] = tested on: SNB-75 CNS
[51] = tested on: SR leukemia
[52] = tested on: SW-620 colon
[53] = tested on: T-47D breast
[54] = tested on: TK-10 renal
[55] = tested on: U251 CNS
[56] = tested on: UACC-257 melanoma
[57] = tested on: UACC-62 melanoma
[58] = tested on: UO-31 renal

## O=S(=O)(Nc1ccc(Cl)cc1)c1ccc(-c2cnc(C3CC3)o2)cc1
[1]
  GI50: 1.67 µM
  TGI: 20.2 µM
[2]
  GI50: 0.168 µM
  TGI: 0.732 µM
[3]
  GI50: 1.49 µM
  TGI: 22.3 µM
[4]
  GI50: 1.25 µM
  TGI: 18.1 µM
[5]
  GI50: 0.637 µM
  TGI: 21.4 µM
[6]
  GI50: 0.586 µM
  TGI: 16.5 µM
[7]
  GI50: 0.564 µM
  TGI: 19.9 µM
[8]
  GI50: 1.27 µM
  TGI: 10 µM
[9]
  GI50: 2.06 µM
  TGI: 15.3 µM
[10]
  GI50: 2.13 µM
  TGI: 18.8 µM
[11]
  GI50: 2.02 µM
  TGI: 15.3 µM
[12]
  GI50: 0.413 µM
  TGI: 15.9 µM
[13]
  GI50: 0.368 µM
  TGI: 15.1 µM
[14]
  GI50: 0.388 µM
  TGI: 8.58 µM
[15]
  GI50: 0.791 µM
  TGI: 18.6 µM
[16]
  GI50: 1.81 µM
  TGI: 18.1 µM
[17]
  GI50: 0.372 µM
  TGI: 6.86 µM
[18]
  GI50: 0.414 µM
  TGI: 14.4 µM
[19]
  GI50: 0.637 µM
  TGI: 15.2 µM
[20]
  GI50: 0.353 µM
  TGI: > 75 µM
[21]
  GI50: 0.431 µM
  TGI: 16.2 µM
[22]
  GI50: 0.595 µM
  TGI: 18.6 µM
[23]
  GI50: 0.406 µM
  TGI: 16.9 µM
[24]
  GI50: 0.743 µM
  TGI: 20.3 µM
[25]
  GI50: 0.383 µM
  TGI: 15 µM
[26]
  GI50: 1.67 µM
  TGI: 15.1 µM
[27]
  GI50: 0.15 µM
  TGI: 0.511 µM
[28]
  GI50: 0.786 µM
  TGI: 41.3 µM
[29]
  GI50: 4.86 µM
  TGI: 23.1 µM
[30]
  GI50: 2.28 µM
  TGI: 16.4 µM
[31]
  GI50: 0.395 µM
  TGI: 7.28 µM
[32]
  GI50: 0.367 µM
  TGI: 11.1 µM
[33]
  GI50: 0.41 µM
  TGI: 8.94 µM
[34]
  GI50: 0.372 µM
  TGI: 3.73 µM
[35]
  GI50: 2.64 µM
  TGI: 17.9 µM
[36]
  GI50: 3.69 µM
  TGI: 17.9 µM
[37]
  GI50: 2.54 µM
  TGI: 22.4 µM
[38]
  GI50: 1 µM
  TGI: 15.5 µM
[39]
  GI50: 1.06 µM
  TGI: 22.7 µM
[40]
  GI50: 0.683 µM
  TGI: 4.98 µM
[41]
  GI50: 1.85 µM
  TGI: 23 µM
[42]
  GI50: 0.425 µM
  TGI: 12.5 µM
[43]
  GI50: 0.513 µM
  TGI: 3.43 µM
[44]
  GI50: 0.766 µM
  TGI: 21.2 µM
[45]
  GI50: 5.72 µM
  TGI: 21.9 µM
[46]
  GI50: 0.768 µM
  TGI: 12.8 µM
[47]
  GI50: 2.07 µM
  TGI: 15.6 µM
[48]
  GI50: 1.09 µM
  TGI: 19.5 µM
[49]
  GI50: 0.847 µM
  TGI: 18.2 µM
[50]
  GI50: 0.191 µM
  TGI: 1.54 µM
[51]
  GI50: 0.21 µM
  TGI: 28.5 µM
[52]
  GI50: 0.378 µM
  TGI: 14 µM
[53]
  GI50: 0.86 µM
  TGI: 17.4 µM
[54]
  GI50: 6.49 µM
  TGI: 21.9 µM
[55]
  GI50: 0.659 µM
  TGI: 17.6 µM
[56]
  GI50: 8.36 µM
  TGI: 28.8 µM
[57]
  GI50: 0.584 µM
  TGI: 13.7 µM
[58]
  GI50: 1.14 µM
  TGI: 15.5 µM
